As to `CC(C)SN1C=Cn2c(nc(=O)n2[N+](=O)[O-])N1.O.O` (hydrate or solvate), the melting point was found to be 185 °C.

For the origin of these results see patent US20190211024A1 (priority 2016, published 2019).
